The values that follow are results of earlier work, collected in patent US9561272B2, “Compositions and methods for modulating immune responses” (The University of Queensland, priority 2006, dated 2017).

B1: PIAS3 (protein, UniProt Q9Y6X2 1-628, looked up)
E3 SUMO-protein ligase PIAS3: MAELGELKHMVMSFRVSELQVLLGFAGRNKSGRKHELLAKALHLLKSSCAPSVQMKIKELYRRRFPRKTLGPSDLSLLSLPPGTSPVGSPGPLAPIPPTLLAPGTLLGPKREVDMHPPLPQPVHPDVTMKPLPFYEVYGELIRPTTLASTSSQRFEEAHFTFALTPQQVQQILTSREVLPGAKCDYTIQVQLRFCLCETSCPQEDYFPPNLFVKVNGKLCPLPGYLPPTKNGAEPKRPSRPINITPLARLSATVPNTIVVNWSSEFGRNYSLSVYLVRQLTAGTLLQKLRAKGIRNPDHSRALIKEKLTADPDSEVATTSLRVSLMCPLGKMRLTVPCRALTCAHLQSFDAALYLQMNEKKPTWTCPVCDKKAPYESLIIDGLFMEILSSCSDCDEIQFMEDGSWCPMKPKKEASEVCPPPGYGLDGLQYSPVQGGDPSENKKKVEVIDLTIESSSDEEDLPPTKKHCSVTSAAIPALPGSKGVLTSGHQPSSVLRSPAMGTLGGDFLSSLPLHEYPPAFPLGADIQGLDLFSFLQTESQHYGPSVITSLDEQDALGHFFQYRGTPSHFLGPLAPTLGSSHCSATPAPPPGRVSSIVAPGGALREGHGGPLPSGPSLTGCRSDIISLD
B2: Secretory leukoprotease inhibitor (SLPI) (protein, UniProt P03973 26-132, looked up)
Antileukoproteinase: SGKSFKAGVCPPKKSAQCLRYKKPECQSDWQCPGKKRCCPDTCGIKCLDPVDTPNPTRRKPGKCPVTYGQCLMLNPPNFCEMDGQCKRDLKCCMGMCGKSCVSPVKA
B3: Siah2 (protein, UniProt O43255 1-324, looked up)
E3 ubiquitin-protein ligase …: MSRPSSTGPSANKPCSKQPPPQPQHTPSPAAPPAAATISAAGPGSSAVPAAAAVISGPGGGGGAGPVSPQHHELTSLFECPVCFDYVLPPILQCQAGHLVCNQCRQKLSCCPTCRGALTPSIRNLAMEKVASAVLFPCKYATTGCSLTLHHTEKPEHEDICEYRPYSCPCPGASCKWQGSLEAVMSHLMHAHKSITTLQGEDIVFLATDINLPGAVDWVMMQSCFGHHFMLVLEKQEKYEGHQQFFAIVLLIGTRKQAENFAYRLELNGNRRRLTWEATPRSIHDGVAAAIMNSDCLVFDTAIAHLFADNGNLGINVTISTCCP

One data set deals with NF-κB. To be noted: Table 3, miscellaneous inhibitors of NF-κB; step of NF-κB function inhibited, per the cited reference; cited from earlier work.
Consider `S=C([S-])OC1CC2CC1C1CCCC21.[K+]` (stereo not shown), for which the “Effect or point of inhibition” value is “Transactivation”.

For `O=C(Nc1ncc([N+](=O)[O-])s1)c1ccc([N+](=O)[O-])c(Cl)c1` [SM-7368 (small molecule)], the “Effect or point of inhibition” value is recorded as “DNA binding”.

As for `O=C(O)c1cc(/N=N/c2ccc(S(=O)(=O)Nc3ccccn3)cc2)ccc1O` [Sulfasalazine], the “Effect or point of inhibition” value is reported as “DNA binding”.

Consider `Cc1nc(C)c(C)nc1C` [Tetramethylpyrazine], for which the “Effect or point of inhibition” value was “DNA binding”.

In the case of `c1cc2c(cc1[C@H]1OC[C@H]3[C@@H]1CO[C@@H]3c1ccc3c(c1)OCO3)OCO2` [Sesamin (from sesame oil)], the “Effect or point of inhibition” value was “DNA binding”.

Take `CC(/C=C/C(=O)NO)=C\[C@@H](C)C(=O)c1ccc(N(C)C)cc1` [Trichostatin A]: the “Effect or point of inhibition” value is on record as “RelA DNA binding”.

As to Artemisolide, the “Effect or point of inhibition” value was “Transactivation”.

With `COc1ccc(-c2cc(=O)c3c(OC)c(OC)c(OC)c(OC)c3o2)cc1OC` [Nobiletin], the “Effect or point of inhibition” value is given as “Transactivation”.

With `COc1ccc(C(C)=O)c(O)c1` [Paeonol (from Mountain Cortx)], the “Effect or point of inhibition” value is “Transactivation”.

Take `O=C(C=Cc1ccc(O)cc1)NCCc1c[nH]c2ccc(O)cc12`: the “Effect or point of inhibition” value is “DNA binding”.

For `CC1=C(CO)C(=O)O[C@@H]([C@@H](C)[C@H]2CC[C@H]3[C@@H]4C[C@H]5O[C@]56[C@@H](O)C=CC(=O)[C@]6(C)[C@H]4CC[C@]23C)C1` [Withaferin A], the “Effect or point of inhibition” value is “DNA binding”.

`S=C=NCCc1ccccc1` [Phenethylisothiocyanate]: the “Effect or point of inhibition” value is given as “Transactivation”.

Turning to `CCCCCCCCCCCCC/C=C/[C@@H](O)[C@@H](N)CO[C@@H]1O[C@H](CO)[C@H](O)[C@H](O)[C@H]1O` [Psychosine], the “Effect or point of inhibition” value is listed as “Transactivation”.

On to `COc1cc(O)c(CC=C(C)C)c(O)c1C(=O)/C=C/c1ccc(O)cc1` [Xanthohumol (a hops prenylflavonoid)], for which the “Effect or point of inhibition” value is recorded as “DNA binding”.

Take `O=c1cc(N2CCOCC2)oc2c(-c3ccccc3)cccc12` [LY294,002]: the “Effect or point of inhibition” value is given as “Transactivation”.

For `Cn1cc(C2=C(c3cn(CCCSC(=N)N)c4ccccc34)C(=O)NC2=O)c2ccccc21` [RO31-8220 (PKC inhibitor)], the “Effect or point of inhibition” value is reported as “Transactivation”.

Turning to `CC1(C)C[C@@H]1C(=O)Nc1ccc(Oc2ccc(NC(=O)[C@H]3CC3(C)C)cn2)cc1` [APC0576], the “Effect or point of inhibition” value is on record as “Transactivation”.

Consider `[SH-].[SH-].[S]=[Mo]=[S]` [Tetrathiomolybdate], for which the “Effect or point of inhibition” value is given as “Transactivation”.

For `O=c1cc(-c2ccc(O)c(O)c2)oc2cc(O)cc(O)c12` [Luteolin], the “Effect or point of inhibition” value was “p65 Transactivation”.

`COC1=C[C@@H]2[C@@H]3Cc4ccc(OC)c(O)c4[C@]2(CCN3C)CC1=O` [Sinomenine]: the “Effect or point of inhibition” value is given as “DNA binding”.

Consider `C[C@H]1CCC[C@H](O)CCC/C=C/c2cc(O)cc(O)c2C(=O)O1` [Alpha-zearalenol], for which the “Effect or point of inhibition” value is “Transactivation”.

For `C[n+]1c2n(c(=O)c3ccccc31)CCc1c-2[nH]c2ccccc12` [Dehydroevodiamine], the “Effect or point of inhibition” value is “Transactivation”.

Turning to Tom1 (target of Myb-1) overexpression, the “Effect or point of inhibition” value is on record as “DNA binding”.

In the case of `N[C@@H](Cc1c[nH]cn1)C(=O)O` [Histidine], the “Effect or point of inhibition” value is listed as “Transactivation”.

With `COc1cc([C@@H]2c3cc4c(c(OC)c3[C@H](O)[C@H]3COC(=O)[C@H]23)OCO4)cc(OC)c1O`, the “Effect or point of inhibition” value is “Transactivation”.

On to `COc1ccc(C=CC(=O)Nc2ccccc2C(=O)O)cc1OC`, for which the “Effect or point of inhibition” value is “Transactivation”.

For `N#CC(C#N)=Cc1ccc([N+](=O)[O-])c(O)c1` [Tyrphostin AG-126], the “Effect or point of inhibition” value is “DNA binding”.

Siva-1: the “Effect or point of inhibition” value is “DNA binding”.

Regarding `O=C1NC(=O)C(Cc2ccc3cc(OCc4ccccc4F)ccc3c2)S1` (stereo not shown) [Thiazolidinedione MCC-555], the “Effect or point of inhibition” value is “DNA binding”.

Turning to `OC[C@@H](O)[C@H](O)[C@@H](O)CO` [Xylitol], the “Effect or point of inhibition” value is “DNA binding”.

For `CS(=O)(=O)Nc1cc2occ(NC=O)c(=O)c2cc1Oc1ccccc1`, the “Effect or point of inhibition” value is reported as “DNA binding”.

In the case of `CC(=O)OC(CC=C(C)C)C(C)=CC(O)CC(C)=CCOc1ccc2ccc(=O)oc2c1` (stereo not shown), the “Effect or point of inhibition” value was “Transactivation”.

On to `CCCCC/C=C\C/C=C\CCCCCCCC(=O)OCC(COC(=O)CCCCCCC/C=C\C/C=C\CCCCC)OC(=O)CCCCCCC/C=C\C/C=C\CCCCC` [Trilinolein], for which the “Effect or point of inhibition” value is “Transactivation”.

For the molecule `C[C@H]1[C@H](C)CC[C@]2(C(=O)O)CC[C@]3(C)C(=CC[C@@H]4[C@@]5(C)CC[C@H](O)C(C)(C)[C@@H]5CC[C@]43C)[C@H]12` [Ursolic acid], the “Effect or point of inhibition” value is listed as “DNA binding”.

In the case of `COC[C@H]1OC(=O)c2coc3c2[C@@]1(C)C1=C(C3=O)[C@@H]2CCC(=O)[C@@]2(C)C[C@H]1OC(C)=O` [Wortmannin (fungal metabolite)], the “Effect or point of inhibition” value is given as “Transactivation”.

Turning to `COc1cc(/C=C/C(=O)c2ccc(F)cc2)cc(OC)c1OC` [3,4,5-trimethoxy-4′-fluorochalcone], the “Effect or point of inhibition” value is “Transactivation”.

Regarding `COc1c(O)cc(O)c2c(=O)cc(-c3ccccc3)oc12` [Wogonin (5,7-dihydroxy-8-methoxyflavone)], the “Effect or point of inhibition” value is recorded as “DNA binding”.

As for `CC(C)[C@]12O[C@H]1[C@@H]1O[C@]13[C@]1(O[C@H]1C[C@H]1C4=C(CC[C@@]13C)C(=O)OC4)[C@@H]2O`, the “Effect or point of inhibition” value is reported as “DNA binding”.

On to `C=CCNC1=C2C[C@@H](C)C[C@H](OC)[C@H](O)[C@@H](C)/C=C(\C)[C@H](OC(N)=O)[C@@H](OC)/C=C\C=C(/C)C(=O)NC(=CC1=O)C2=O` [17-allylamino-17-demethoxygeldanamycin], for which the “Effect or point of inhibition” value is “Transactivation”.

Regarding `CCOC(=O)c1cnc(NC2=C(C)C(=O)NC2=O)nc1C(F)(F)F`, the “Effect or point of inhibition” value was “Transactivation”.

In the case of B1, the “Effect or point of inhibition” value is “Transactivation”.

Take B2: the “Effect or point of inhibition” value is given as “DNA binding”.

Turning to B3, the “Effect or point of inhibition” value is “DNA binding”.

Still in this data set, the particulars now being: cited from earlier work.
For `N[C@@H](CCC(=O)N[C@@H](CSN=O)C(=O)NCC(=O)O)C(=O)O` [Nitrosoglutathione], the “Effect or point of inhibition” value was “DNA binding”.

In the case of `C=C(C)[C@@H]1CC[C@]2(C(=O)O[C@@H]3O[C@H](CO[C@@H]4O[C@H](CO)[C@@H](O[C@@H]5O[C@@H](C)[C@H](O)[C@@H](O)[C@H]5O)[C@H](O)[C@H]4O)[C@@H](O)[C@H](O)[C@H]3O)CC[C@]3(C)[C@H](C[C@H]4OC(=O)C[C@@H](O)[C@]5(C)[C@@H]4[C@@]3(C)CC[C@H]5C(=C)C)[C@@H]12` [Chiisanoside], the “Effect or point of inhibition” value is recorded as “RelA Nuclear translocation”.

As to `Oc1ccc(O)cc1` [Hydroquinone (HQ)], the “Effect or point of inhibition” value is listed as “DNA binding”.

Take `C[S+]([O-])c1ccc(-c2nc(-c3ccc(F)cc3)c(-c3ccncc3)[nH]2)cc1` (stereo not shown) [SB203580 (p38 MAPK inhibitor)]: the “Effect or point of inhibition” value is “Transactivation”.

Consider mercury, for which the “Effect or point of inhibition” value is “DNA binding”.

With `CCCCCCCCCCCCCC(=O)OCC/C(SS/C(CCOC(=O)CCCCCCCCCCCCC)=C(\C)N(C=O)Cc1cnc(C)nc1N)=C(/C)N(C=O)Cc1cnc(C)nc1N`, the “Effect or point of inhibition” value is listed as “Nuclear translocation”.
